The test system of the series is CCRIS mutagenicity, Ames/micronucleus/aberration tests. The series is described as follows: CCRIS mutagenicity studies.
[1] abbreviates: Test System: AMES SALMONELLA TYPHIMURIUM, Strain/Indicator: TA98, Metabolic Activation: NONE, Method: PREINCUBATION
Setting [2] is: Test System: AMES SALMONELLA TYPHIMURIUM, Strain/Indicator: TA98, Metabolic Activation: RAT, LIVER, S-9, AROCLOR 1254, Method: STANDARD PLATE.
Setting [3] is: Test System: AMES SALMONELLA TYPHIMURIUM, Strain/Indicator: TA100, Metabolic Activation: NONE, Method: PREINCUBATION
[4] abbreviates: Test System: AMES SALMONELLA TYPHIMURIUM, Strain/Indicator: TA100, Metabolic Activation: RAT, LIVER, S-9, AROCLOR 1254, Method: STANDARD PLATE.
The mark [5] stands for this setting: Test System: E. COLI, Strain/Indicator: WP2 UVRA, Metabolic Activation: NONE, Method: STANDARD PLATE.
The mark [6] stands for this setting: Test System: E. COLI, Strain/Indicator: WP2 UVRA, Metabolic Activation: RAT, LIVER, S-9, Method: STANDARD PLATE.
The mark [7] stands for this setting: Test System: AMES SALMONELLA TYPHIMURIUM, Strain/Indicator: TA98, Metabolic Activation: NONE, Method: STANDARD PLATE.
[8] abbreviates: Test System: AMES SALMONELLA TYPHIMURIUM, Strain/Indicator: TA100, Metabolic Activation: NONE, Method: STANDARD PLATE.
Setting [9] is: Test System: AMES SALMONELLA TYPHIMURIUM, Strain/Indicator: TA1535, Metabolic Activation: NONE, Method: STANDARD PLATE.
The mark [10] stands for this setting: Test System: AMES SALMONELLA TYPHIMURIUM, Strain/Indicator: TA1535, Metabolic Activation: RAT, LIVER, S-9, AROCLOR 1254, Method: STANDARD PLATE.
Setting [11] is: Test System: AMES SALMONELLA TYPHIMURIUM, Strain/Indicator: TA1537, Metabolic Activation: NONE, Method: STANDARD PLATE.
Where [12] appears, read: Test System: AMES SALMONELLA TYPHIMURIUM, Strain/Indicator: TA1537, Metabolic Activation: RAT, LIVER, S-9, AROCLOR 1254, Method: STANDARD PLATE.
The mark [13] stands for this setting: Test System: AMES SALMONELLA TYPHIMURIUM, Strain/Indicator: TA1538, Metabolic Activation: NONE, Method: STANDARD PLATE.
Where [14] appears, read: Test System: AMES SALMONELLA TYPHIMURIUM, Strain/Indicator: TA1538, Metabolic Activation: RAT, LIVER, S-9, AROCLOR 1254, Method: STANDARD PLATE.
[15] abbreviates: Test System: AMES SALMONELLA TYPHIMURIUM, Strain/Indicator: TA98, Metabolic Activation: RAT, LIVER, S-9, Method: STANDARD PLATE.

Active and inactive are the calls of the source. How the calls were made is not given here.

The text below walks through data of PubChem BioAssay AID1259407 (Chemical Carcinogenesis Research Information System (CCRIS), 2018).

On to `Cc1ccc2nc3c(ccc4ccccc43)c(C)c2c1`, for which the mutagenic call is “inactive; negative” (Test System: AMES SALMONELLA TYPHIMURIUM, Strain/Indicator: TA97A, Metabolic Activation: NONE, Method: PREINCUBATION); “inactive; negative” under setting [1]; “active; positive” under setting [2]; “inactive; negative” under setting [3]; “active; positive” under setting [4]; “active; positive” (Test System: AMES SALMONELLA TYPHIMURIUM, Strain/Indicator: TA102, Metabolic Activation: NONE, Method: PREINCUBATION). In addition, the mutagenic call was “inactive; negative” (Test System: E. COLI, Strain/Indicator: WP2 UVRA, Metabolic Activation: HAMSTER, LIVER, S-9, AROCLOR 1254, Method: STANDARD PLATE); “inactive; negative” (Test System: E. COLI, Strain/Indicator: WP2 UVRA, Metabolic Activation: HAMSTER, LIVER, S-9, Method: STANDARD PLATE); “inactive; negative” (Test System: E. COLI, Strain/Indicator: WP2 UVRA, Metabolic Activation: MOUSE, LIVER, S-9, AROCLOR 1254, Method: STANDARD PLATE); “inactive; negative” (Test System: E. COLI, Strain/Indicator: WP2 UVRA, Metabolic Activation: MOUSE, LIVER, S-9, Method: STANDARD PLATE); “inactive; negative” under setting [5]; “inactive; negative” (Test System: E. COLI, Strain/Indicator: WP2 UVRA, Metabolic Activation: RAT, LIVER, S-9, AROCLOR 1254, Method: STANDARD PLATE). Further, under setting [6], the mutagenic call is “inactive; negative”.
For `CC(O)Cc1cc(N)cc([N+](=O)[O-])c1N` (configuration not stated), the mutagenic call reads like this: under setting [7], “inactive; negative”; under setting [2], “inactive; negative”; under setting [8], “inactive; negative”; under setting [4], “inactive; negative”; under setting [9], “inactive; negative”; under setting [10], “inactive; negative”. In addition, the mutagenic call is “inactive; negative” under setting [11], “inactive; negative” under setting [12], “inactive; negative” under setting [13] and “inactive; negative” under setting [14].
Consider `CCc1cccc2c3c([nH]c12)C(C)(CC)OCC3` (configuration not stated), for which the mutagenic call reads like this: under setting [7], “inactive; negative”; under setting [15], “inactive; negative”; under setting [8], “inactive; negative”; (Test System: AMES SALMONELLA TYPHIMURIUM, Strain/Indicator: TA100, Metabolic Activation: RAT, LIVER, S-9, Method: STANDARD PLATE) “inactive; negative”; under setting [9], “inactive; negative”; (Test System: AMES SALMONELLA TYPHIMURIUM, Strain/Indicator: TA1535, Metabolic Activation: RAT, LIVER, S-9, Method: STANDARD PLATE) “inactive; negative”. The mutagenic call is, setting by setting: under setting [11], “inactive; negative”; (Test System: AMES SALMONELLA TYPHIMURIUM, Strain/Indicator: TA1537, Metabolic Activation: RAT, LIVER, S-9, Method: STANDARD PLATE) “inactive; negative”; under setting [5], “inactive; negative”; under setting [6], “inactive; negative”.
For `CCOC(=O)C1OC1c1ccccc1` (configuration not stated), the mutagenic call is, setting by setting: (Test System: AMES SALMONELLA TYPHIMURIUM, Strain/Indicator: TA98, Metabolic Activation: HAMSTER, LIVER, S-9, AROCLOR 1254 (10%), Method: PREINCUBATION) “inactive; negative”; under setting [1], “inactive; negative”; under setting [7], “inactive; negative”; (Test System: AMES SALMONELLA TYPHIMURIUM, Strain/Indicator: TA98, Metabolic Activation: RAT, LIVER, S-9, AROCLOR 1254 (10%), Method: PREINCUBATION) “inactive; negative”; under setting [2], “inactive; negative”; (Test System: AMES SALMONELLA TYPHIMURIUM, Strain/Indicator: TA100, Metabolic Activation: HAMSTER, LIVER, S-9, AROCLOR 1254 (10%), Method: PREINCUBATION) “inactive; negative”. In addition, the mutagenic call runs as follows: under setting [3], “inactive; negative”; under setting [8], “inactive; negative”; (Test System: AMES SALMONELLA TYPHIMURIUM, Strain/Indicator: TA100, Metabolic Activation: RAT, LIVER, S-9, AROCLOR 1254 (10%), Method: PREINCUBATION) “inactive; negative”; under setting [4], “active; positive”; (Test System: AMES SALMONELLA TYPHIMURIUM, Strain/Indicator: TA1535, Metabolic Activation: HAMSTER, LIVER, S-9, AROCLOR 1254 (10%), Method: PREINCUBATION) “inactive; negative”; (Test System: AMES SALMONELLA TYPHIMURIUM, Strain/Indicator: TA1535, Metabolic Activation: NONE, Method: PREINCUBATION) “inactive; negative”. For the same compound, the mutagenic call under setting [9] was “inactive; negative”; the mutagenic call (Test System: AMES SALMONELLA TYPHIMURIUM, Strain/Indicator: TA1535, Metabolic Activation: RAT, LIVER, S-9, AROCLOR 1254 (10%), Method: PREINCUBATION) is “inactive; negative”; the mutagenic call under setting [10] is “inactive; negative”; the mutagenic call (Test System: AMES SALMONELLA TYPHIMURIUM, Strain/Indicator: TA1537, Metabolic Activation: HAMSTER, LIVER, S-9, AROCLOR 1254 (10%), Method: PREINCUBATION) is “inactive; negative”; the mutagenic call (Test System: AMES SALMONELLA TYPHIMURIUM, Strain/Indicator: TA1537, Metabolic Activation: NONE, Method: PREINCUBATION) was “inactive; negative”; the mutagenic call under setting [11] was “inactive; negative”. Moreover, the mutagenic call by setting is: (Test System: AMES SALMONELLA TYPHIMURIUM, Strain/Indicator: TA1537, Metabolic Activation: RAT, LIVER, S-9, AROCLOR 1254 (10%), Method: PREINCUBATION) “inactive; negative”; under setting [12], “inactive; negative”; under setting [13], “inactive; negative”; under setting [14], “inactive; negative”; (Test System: CHINESE HAMSTER OVARY, Strain/Indicator: CHO-K1-BH4/6-THIOGUANINE, Metabolic Activation: NONE) “active; positive”; (Test System: CHINESE HAMSTER OVARY, Strain/Indicator: CHO-K1-BH4/6-THIOGUANINE, Metabolic Activation: RAT, LIVER, S-9, AROCLOR 1254) “active; positive”.
Take `CNC(=O)Oc1cccc2c1OC(C)(C)C2O` (configuration not stated): the mutagenic call (End Point: IN VIVO MICRONUCLEUS, Test System: BONE MARROW POLYCHROMATIC ERYTHROCYTES, Species: MOUSE, Strain/Sex: KM/MALE, FEMALE, Route: IP INJECTION) was “active; positive”.
On to `CNC(=O)NOC(=O)N(C)C(=O)NC`, for which the mutagenic call under setting [7] was “inactive; negative”, the mutagenic call under setting [15] is “inactive; negative” and the mutagenic call under setting [8] was “inactive; negative”.
In the case of `COc1cccc(/C=C/c2ccc(N)cc2)c1`, the mutagenic call was “inactive; negative” (Test System: AMES SALMONELLA TYPHIMURIUM, Strain/Indicator: TA98(1,8-DNP6), Metabolic Activation: NONE, Method: STANDARD PLATE); “active; positive” (Test System: AMES SALMONELLA TYPHIMURIUM, Strain/Indicator: TA98(1,8-DNP6), Metabolic Activation: S-9, Method: STANDARD PLATE); “active; positive” under setting [7]; “active; positive” (Test System: AMES SALMONELLA TYPHIMURIUM, Strain/Indicator: TA98, Metabolic Activation: S-9, Method: STANDARD PLATE); “inactive; negative” under setting [8]; “active; positive” (Test System: AMES SALMONELLA TYPHIMURIUM, Strain/Indicator: TA100, Metabolic Activation: S-9, Method: STANDARD PLATE).
